Where only a bound is given, the exact number is not on record here.

The target in the experiment is T1, PD-1/PD-L1 (Homo sapiens, UniProt Q9NZQ7).
T1 construct: purchased Cisbio 63ADK000CPDEC
T1 sequence (Q9NZQ7 19-238 limits assumed): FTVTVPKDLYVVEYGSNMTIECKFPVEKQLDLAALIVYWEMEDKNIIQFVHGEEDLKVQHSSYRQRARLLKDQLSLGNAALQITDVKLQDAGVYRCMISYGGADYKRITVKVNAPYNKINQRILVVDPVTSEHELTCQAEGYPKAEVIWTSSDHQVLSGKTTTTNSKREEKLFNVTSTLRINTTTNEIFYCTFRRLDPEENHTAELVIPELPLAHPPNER
The experiment can be described thus: PD-1/PD-L1 homogeneous time-resolved fluorescence (HTRF) binding assay. The following applies: 665 nm/620 nm ratio. From the text: Test Example 1: Detect the Inhibitory Effect of the Compound to the Binding of PD-1/PD-L1 Protein
The PD-1/PD-L1 homogeneous time-resolved fluorescence method is used to detect the binding ability of the compound with PD-L1.
PD-1/PD-L1 binding assay kit (Cisbio, Cat #63ADK000CPDEC) was chosen, which contains two proteins Tag 1-PD-L1 and Tag 2-PD-1, and two antibodies Anti-Tag1-Eu^3+ and Anti-Tag2-XL 665. The principle of detection was: Anti-tag1-Eu^3+ was used as the donor of HTRF, and Anti-Tag2-XL 665 was used as the acceptor of HTRF. When Tag 1-PD-L1 interacts with Tag 2-PD-1, the added HTRF donor and the acceptor are close to each other. After the donor has received the excitation energy, part of the energy was transferred to the acceptor, thus generating 665 nm emission light. […] The inhibitory effect of the compound can be determined by comparing the ratio of 665 nm/620 nm. Tag 1-PD-L1 was diluted with Diluent buffer (cat #62DLBDDF) to a working concentration of 10 nM, Tag 2-PD-1 was diluted with Diluent buffer to a working concentration of 500 nM, Anti-Tag1-Eu^3+ was diluted with detection buffer (cat #62DB1FDG) at a ratio of 1:100, Anti-Tag2-XL 665 was diluted with detection buffer at a ratio of 1:20, and the compound to be detected was diluted with diluent buffer to a final concentration of 2×. Compound solution (2 μL) was added to each well of a 384-well plate, then Tag 1-PD-L1 (4 μL) and Tag 2-PD-1 (4 μL) were added successively. The mixture was incubated at room temperature for 15 minutes. Then Anti-Tag1-Eu^3+ (5 μL) and Anti-Tag2-XL 665 (5 μL) were added, and the mixture was incubated overnight at room temperature. BioTek Synergy™ Neo2 multifunctional microplate reader was used to detect so as to provide the 665 nm/620 nm ratio. PrismGraphd 5.02 was used to fit the IC50 curve.
On the technique in general: Time-resolved FRET reads energy transfer from a long-lived donor to a nearby acceptor.
What is called IC50 is the concentration that gives 50% inhibition. As to `COc1nc(-c2cccc(-c3cccc(Nc4nccc5sc(CNCC(=O)O)nc45)c3Cl)c2Cl)cc(C)c1CN1CC2(CCC(=O)N2)C1` [Compound 30], the IC50 is under 100 nM.

In the case of `COc1nc(-c2cccc(-c3cccc(Nc4nccc5sc(CNCC(=O)O)nc45)c3Cl)c2Cl)ccc1CN1CCC2(CNC(=O)C2)C1` (stereo not shown) [Compound 25], the IC50 is under 100 nM.

Turning to `O=C(O)[C@@H]1C[C@H](O)CN1Cc1nc2c(Nc3cccc(-c4ccccc4)c3Cl)nccc2s1` [Compound 4], the IC50 was under 100 nM. To `COc1nc(-c2cccc(-c3cccc(Nc4nccc5sc(CN6CCC(C)(C(=O)O)CC6)nc45)c3Cl)c2Cl)cc(C)c1CNC[C@@H]1CCC(=O)N1` [Compound 49] belongs under 100 nM; to `COc1nc(-c2cccc(-c3cccc(Nc4nccc5sc(CNCC(=O)OCc6oc(=O)oc6C)nc45)c3Cl)c2Cl)ccc1CNC[C@@H]1CCC(=O)N1` [Compound 19, (5-methyl-2-carbonyl-1,3-dioxazole-4-yl) methyl (S)-((4-((2,2′-dichloro-3′-(6-methoxy-5-((5-carbonylpyrrolidin-2-yl)methyl)pyridine-2-yl)-[1,1′-biphenyl]-3-yl)amino)thiazolo [4,5-c]pyridine-2-yl)methyl) glycine], under 100 nM. Under `COc1nc(-c2cccc(-c3cccc(Nc4nccc5sc(CN6CC(NC(C)=O)C6)nc45)c3Cl)c2Cl)ccc1CN1CC2(CCC(=O)N2)C1` [Compound 29] stands under 100 nM; under `O=C(O)CNCc1nc2c(Nc3cccc(-c4cccc(-c5ccc(CNC[C@@H]6CCC(=O)N6)c(O)n5)c4Cl)c3Cl)nccc2n1CCO` [Compound 23], under 100 nM; under `COc1nc(-c2cccc(-c3cccc(Nc4nccc5sc(CN[C@H]6CC[C@@H](C(=O)O)CC6)nc45)c3Cl)c2Cl)cc(C)c1CNC[C@@H]1CCC(=O)N1` [Compound 51], under 100 nM. Under `COc1nc(-c2cccc(-c3cccc(Nc4nccc5sc(CN6CCC[C@H](C(=O)O)C6)nc45)c3Cl)c2Cl)ccc1CN1CC2(CCC(=O)N2)C1` [Compound 33] stands under 100 nM; under `CN(CCCO)CCCOc1cccc(-c2cccc(Nc3nccc4sc(CNCC(=O)O)nc34)c2Cl)c1` [Compound 14, ((4-((2-chloro-3′-(3-((3-hydroxypropyl)(methyl)amino)propoxy)-[1,1′-biphenyl]-3-yl)amino)thiazolo[4,5-c]pyridin-2-yl)methyl)glycine], under 100 nM. On to `COc1nc(-c2cccc(-c3cccc(Nc4nccc5sc(CNCC(=O)O)nc45)c3Cl)c2Cl)cnc1CNC[C@@H]1CCC(=O)N1` [Compound 26], for which the IC50 lay in the range of 100 to 1000 nM. To `COc1nc(-c2cccc(-c3cccc(Nc4nccc5sc(CNCC(=O)O)nc45)c3Cl)c2C)ccc1CNC[C@@H]1CCC(=O)N1` [Compound 20] belongs under 100 nM. Turning to `COc1nc(-c2cccc(-c3cccc(Nc4nccc5sc(CN[C@H]6CC[C@H](C(=O)O)CC6)nc45)c3Cl)c2Cl)cc(C)c1CNC[C@@H]1CCC(=O)N1` [Compound 50], the IC50 is under 100 nM. In the case of `COc1nc(-c2cccc(-c3cccc(Nc4nccc5sc(CN6CCC(C(=O)O)CC6)nc45)c3Cl)c2Cl)ccc1CNC[C@@H]1CCC(=O)N1` [Compound 40], the IC50 was under 100 nM. In the case of `COc1nc(-c2cccc(-c3cccc(Nc4nccc5sc(CNCC#N)nc45)c3Cl)c2Cl)ccc1CNC[C@@H]1CCC(=O)N1` [Compound 24], the IC50 was under 100 nM. To `O=C(O)CNCc1nc2c(Nc3cccc(-c4cccc(OCCCN5CCC(O)C5)c4)c3Cl)nccc2s1` (stereo not shown) [Compound 15, ((4-((2-chloro-3′-(3-(3-hydroxypyrrolidine-1-yl)propoxy)-[1,1′-biphenyl]-3-yl)amino)thiazolo[4,5-c]pyridine-2-yl)methyl)glycine] belongs under 100 nM. Under `COc1nc(-c2cccc(-c3cccc(Nc4nccc5sc(CNCc6nn[nH]n6)nc45)c3Cl)c2Cl)ccc1CN1CC2(CCC(=O)N2)C1` [Compound 39] stands under 100 nM. Take `COc1nc(-c2cccc(-c3cccc(Nc4nccc5sc(CN6CCC(CC(=O)O)C6)nc45)c3Cl)c2Cl)cc(C)c1CNC[C@@H]1CCC(=O)N1` (stereo partly shown) [Compound 52]: the IC50 was under 100 nM. To `OCCNCc1nc2c(Nc3cccc(-c4ccc5c(c4)OCCO5)c3Cl)nccc2s1` [Compound 10, 2-(((4-((2-chloro-3-(2,3-dihydrobenzo[b][1,4]dioxin-6-yl)phenyl)amino)thiazolo[4,5-c)pyridin-2-yl)methyl)amino)ethane-1-ol] belongs under 100 nM. Take `COc1nc(-c2cccc(-c3cccc(Nc4nccc5sc(CN6CCCC[C@@H]6C(=O)O)nc45)c3Cl)c2Cl)ccc1CNC[C@@H]1CCC(=O)N1` [Compound 42]: the IC50 is under 100 nM. Under `COc1nc(-c2cccc(-c3cccc(Nc4nccc5sc(CN6CCC(C#N)CC6)nc45)c3Cl)c2Cl)cc(C)c1CNC[C@@H]1CCC(=O)N1` [Compound 56] stands under 100 nM; under `COc1nc(-c2cccc(-c3cccc(Nc4nccc5sc(CNCC(=O)O)nc45)c3Cl)c2Cl)cc(C)c1CNC[C@@H]1CCC(=O)N1` [Compound 27], under 100 nM. As for `COc1nc(-c2cccc(-c3cccc(Nc4nccc5sc(CN6CC[C@@H](C(=O)O)C6)nc45)c3Cl)c2Cl)cc(C)c1CNC[C@@H]1CCC(=O)N1` [Compound 45], the IC50 is under 100 nM. With `COc1nc(-c2cccc(-c3cccc(Nc4nccc5sc(CN6CCC[C@@H]6C(=O)O)nc45)c3Cl)c2Cl)ccc1CNC[C@@H]1CCC(=O)N1` [Compound 41], the IC50 was under 100 nM. To `COc1nc(-c2cccc(-c3cccc(Nc4nccc5sc(CN6C[C@@H](O)CC6=O)nc45)c3Cl)c2Cl)ccc1CN1CC2(CCC(=O)N2)C1` [Compound 31] belongs under 100 nM; to `COc1cc(-c2cccc(-c3cccc(Nc4nccc5sc(CN6CCC(C(=O)O)CC6)nc45)c3Cl)c2Cl)cc(C)c1CNC[C@@H]1CCC(=O)N1` [Compound 55], under 100 nM. To `Cc1c(Nc2csc3cc(CN4C[C@@H](O)C[C@H]4C(=O)O)cnc23)cccc1-c1ccccc1` [Compound 2, (2S,4S)-4-hydroxy-1-((3-((2-methyl-[1,1′-biphenyl]-3-yl)amino)thieno[3,2-b]pyridine-6-yl)methyl)pyrrolidine-2-carboxylic acid] belongs under 100 nM.

With `COc1nc(-c2cccc(-c3cccc(Nc4nccc5sc(CN6CC(C(=O)O)C6)nc45)c3Cl)c2Cl)ccc1CN1CC2(CCC(=O)N2)C1` [Compound 32], the IC50 is under 100 nM. Turning to `Cc1c(OCCCN2CCC(O)C2)cccc1-c1cccc(Nc2nccc3sc(CNCC(=O)O)nc23)c1Cl` (stereo not shown) [Compound 16, ((4-((2-chloro-3′-(3-(3-hydroxypyrrolidin-1-yl)propoxy)-2′-methyl-[1,1′-biphenyl]-3-yl)amino)thiazolo[4,5-c]pyridin-2-yl)methyl)glycine], the IC50 is under 100 nM. Under `COc1nc(-c2cccc(-c3cccc(Nc4nccc5sc(CN6CC[C@H](C(=O)O)C6)nc45)c3Cl)c2Cl)cc(C)c1CNC[C@@H]1CCC(=O)N1` [Compound 44] stands under 100 nM; under `COc1nc(-c2cccc(-c3cccc(Nc4nccc5sc(CN6C[C@@H](O)C[C@H]6C(=O)O)nc45)c3Cl)c2Cl)cc(C)c1CNC[C@@H]1CCC(=O)N1` [Compound 48], under 100 nM.

With `COc1nc(-c2cccc(-c3cccc(Nc4nccc5sc(CN6CCC(CC(=O)O)CC6)nc45)c3Cl)c2Cl)cc(C)c1CNC[C@@H]1CCC(=O)N1` [Compound 53], the IC50 was under 100 nM. With `OCCNCc1nc2ccnc(Nc3cccc(-c4ccccc4)c3Cl)c2s1` [Compound 17, 2-(((4-((2-chloro-[1,1′-biphenyl]-3-yl)amino)thiazolo[5,4-c]pyridin-2-yl)methyl)amino)ethane-1-ol], the IC50 fell in the range of 100 to 1000 nM. To `COc1nc(-c2cccc(-c3cccc(Nc4nccc5sc(CNCC(=O)O)nc45)c3Cl)c2Cl)c(Cl)cc1CNC[C@@H]1CCC(=O)N1` [Compound 28] belongs under 100 nM; to `COc1nc(-c2cccc(-c3cccc(Nc4nccc5sc(CNCC(=O)O)nc45)c3Cl)c2Cl)ccc1CNC[C@@H]1CCC(=O)N1` [Compound 18, (S)-((4-((2,2′-dichloro-3′-(6-methoxy-5-((((5-carbonylpyrrolidin-2-yl)methyl)amino)methyl)pyridin-2-yl)-[1,1′-biphenyl]-3-yl)amino)thiazolo[4,5-c]pyridin-2-yl)methyl)glycine], under 100 nM; to `COc1nc(-c2cccc(-c3cccc(Nc4nccc5sc(CN6CCC7(CNC(=O)C7)C6)nc45)c3Cl)c2Cl)cc(C)c1CNC[C@@H]1CCC(=O)N1` (stereo partly shown) [Compound 46], under 100 nM. Under `OCCNCc1nc2c(Nc3cccc(-c4ccccc4)c3Cl)nccc2s1` [Compound 5, 2-(((4-((2-Chloro-[1,1′-biphenyl]-3-yl)amino)thiazolo[4,5-c]pyridin-2-yl)methyl)amino)ethane-1-ol] stands under 100 nM.
